ChEMBL document CHEMBL4270599, “Synthesis of a 3'-C-ethynyl-β-d-ribofuranose purine nucleoside library: Discovery of C7-deazapurine analogs as potent antiproliferative nucleosides” (Eur J Med Chem, 2018)

Experiments:
Format in all cases: functional
K562 [1] = assay: Growth inhibition of human K562 cells assessed as cell growth at 10^-8 M incubated for 48 hrs by sulforhodamine B assay relative to control; conditions: K562, 48 h, read-out: Activity
K562 [2] = assay: Growth inhibition of human K562 cells assessed as cell growth at 10^-7 M incubated for 48 hrs by sulforhodamine B assay relative to control; conditions: K562, 48 h, read-out: Activity
SK-MEL-5 = assay: Growth inhibition of human SK-MEL-5 cells assessed as cell growth at 10^-8 M incubated for 48 hrs by sulforhodamine B assay relative to control; conditions: SK-MEL-5, 48 h, read-out: Activity
MOLT-4 = assay: Growth inhibition of human MOLT4 cells assessed as cell growth at 10^-7 M incubated for 48 hrs by sulforhodamine B assay relative to control; conditions: MOLT-4, 48 h, read-out: Activity
SK-MEL-28 = assay: Cytotoxicity against human SK-MEL-28 cells after 48 hrs by SRB assay; conditions: SK-MEL-28, 48 h
COLO 205 [3] = assay: Growth inhibition of human COLO205 cells assessed as cell growth at 10^-8 M incubated for 48 hrs by sulforhodamine B assay relative to control; conditions: COLO 205, 48 h, read-out: Activity
NCI-H322M = assay: Growth inhibition of human NCI-H322M cells assessed as cell growth at 10^-7 M incubated for 48 hrs by sulforhodamine B assay relative to control; conditions: read-out: Activity
ACHN [4] = assay: Growth inhibition of human ACHN cells assessed as cell growth at 10^-7 M incubated for 48 hrs by sulforhodamine B assay relative to control; conditions: read-out: Activity
LOX IMVI = assay: Growth inhibition of human LOXIMVI cells assessed as cell growth at 10^-7 M incubated for 48 hrs by sulforhodamine B assay relative to control; conditions: read-out: Activity
Hs-578T = assay: Growth inhibition of human Hs 578T cells assessed as cell growth at 10^-6 M incubated for 48 hrs by sulforhodamine B assay relative to control; conditions: read-out: Activity
MDA-MB-231 = assay: Cytotoxicity against human MDA-MB-231 cells after 48 hrs by SRB assay; conditions: MDA-MB-231, 48 h
A549 = assay: Cytotoxicity against human A549 cells after 48 hrs by SRB assay; conditions: A549, 48 h
U-251 [5] = assay: Growth inhibition of human U251 cells assessed as cell growth at 10^-7 M incubated for 48 hrs by sulforhodamine B assay relative to control; conditions: U-251, 48 h, read-out: Activity
SNB-19 = assay: Growth inhibition of human SNB19 cells assessed as cell growth at 10^-6 M incubated for 48 hrs by sulforhodamine B assay relative to control; conditions: SNB-19, 48 h, read-out: Activity
DU-145 = assay: Growth inhibition of human DU145 cells assessed as cell growth at 10^-5 M incubated for 48 hrs by sulforhodamine B assay relative to control; conditions: DU-145, 48 h, read-out: Activity
U-251 [6] = assay: Growth inhibition of human U251 cells assessed as cell growth at 10^-6 M incubated for 48 hrs by sulforhodamine B assay relative to control; conditions: U-251, 48 h, read-out: Activity
Malme-3M = assay: Cytotoxicity against human MALME-3M cells after 48 hrs by SRB assay
UACC-62 = assay: Growth inhibition of human UACC62 cells assessed as cell growth at 10^-5 M incubated for 48 hrs by sulforhodamine B assay relative to control; conditions: UACC-62, 48 h, read-out: Activity
SR = assay: Growth inhibition of human SR cells assessed as cell growth at 10^-6 M incubated for 48 hrs by sulforhodamine B assay relative to control; conditions: read-out: Activity
OVCAR-5 [7] = assay: Growth inhibition of human OVCAR5 cells assessed as cell growth at 10^-7 M incubated for 48 hrs by sulforhodamine B assay relative to control; conditions: OVCAR-5, 48 h, read-out: Activity
MDA-MB-468 = assay: Cytotoxicity against human MDA-MB-468 cells after 48 hrs by SRB assay; conditions: MDA-MB-468, 48 h
SF-268 = assay: Growth inhibition of human SF268 cells assessed as cell growth at 10^-5 M incubated for 48 hrs by sulforhodamine B assay relative to control; conditions: SF-268, 48 h, read-out: Activity
RPMI-8226 = assay: Growth inhibition of human RPMI8226 cells assessed as cell growth at 10^-7 M incubated for 48 hrs by sulforhodamine B assay relative to control; conditions: RPMI-8226, 48 h, read-out: Activity
ACHN [8] = assay: Growth inhibition of human ACHN cells assessed as cell growth at 10^-6 M incubated for 48 hrs by sulforhodamine B assay relative to control; conditions: read-out: Activity
HCC 2998 = assay: Cytotoxicity against human HCC2998 cells after 48 hrs by SRB assay; conditions: HCC 2998, 48 h
OVCAR-5 [9] = assay: Growth inhibition of human OVCAR5 cells assessed as cell growth at 10^-4 M incubated for 48 hrs by sulforhodamine B assay relative to control; conditions: OVCAR-5, 48 h, read-out: Activity
OVCAR-3 = assay: Growth inhibition of human OVCAR3 cells assessed as cell growth at 10^-8 M incubated for 48 hrs by sulforhodamine B assay relative to control; conditions: OVCAR-3, 48 h, read-out: Activity
HOP-62 = assay: Cytotoxicity against human HOP62 cells after 48 hrs by SRB assay; conditions: HOP-62, 48 h
COLO 205 [10] = assay: Growth inhibition of human COLO205 cells assessed as cell growth at 10^-5 M incubated for 48 hrs by sulforhodamine B assay relative to control; conditions: COLO 205, 48 h, read-out: Activity
NCI-H460 = assay: Growth inhibition of human NCI-H460 cells assessed as cell growth at 10^-6 M incubated for 48 hrs by sulforhodamine B assay relative to control; conditions: NCI-H460, 48 h, read-out: Activity
NCI-H23 = assay: Cytotoxicity against human NCI-H23 cells after 48 hrs by SRB assay; conditions: NCI-H23, 48 h
OVCAR-4 = assay: Growth inhibition of human OVCAR4 cells assessed as cell growth at 10^-8 M incubated for 48 hrs by sulforhodamine B assay relative to control; conditions: OVCAR-4, 48 h, read-out: Activity
[11] = read-out: pLC50 (the source's name) (converted)

C#C[C@@]1(O)[C@@H](CO)O[C@@H](n2cc(F)c3c(N)ncnc32)[C@@H]1O
growth at 0.01 µM (K562 [1]): 100%
growth at 0.1 µM (K562 [2]): 78%
growth at 0.01 µM (SK-MEL-5): 92%
growth at 0.1 µM (MOLT-4): 86%
TGI (SK-MEL-28; read-out: TGI): > 100000 nM
GI50 (SK-MEL-28; read-out: pGI50 (converted)): 4270 nM
CC50 (SK-MEL-28; [11]): > 100000 nM
TGI (SK-MEL-28; read-out: pTGI (converted)): > 100000 nM
growth at 0.01 µM (COLO 205 [3]): 101%
growth at 0.1 µM (NCI-H322M): 94%
growth at 0.1 µM (ACHN [4]): 75%
growth at 0.1 µM (LOX IMVI): 87%
growth at 1 µM (Hs-578T): 97%
CC50 (MDA-MB-231; read-out: LC50 (the source's name)): > 100000 nM
TGI (MDA-MB-231; read-out: TGI): 2980 nM
GI50 (MDA-MB-231; read-out: pGI50 (converted)): 380 nM
TGI (MDA-MB-231; read-out: pTGI (converted)): 2950 nM
TGI (A549; read-out: TGI): 2640 nM
GI50 (A549; read-out: pGI50 (converted)): 380 nM
CC50 (A549; [11]): > 100000 nM
TGI (A549; read-out: pTGI (converted)): 2630 nM
growth at 0.1 µM (U-251 [5]): 99%
growth at 1 µM (SNB-19): 39%
growth at 10 µM (DU-145): 1%
growth at 1 µM (U-251 [6]): 38%
TGI (Malme-3M; read-out: TGI): 1810 nM
GI50 (Malme-3M; read-out: pGI50 (converted)): 363 nM
CC50 (Malme-3M; [11]): > 100000 nM
TGI (Malme-3M; read-out: pTGI (converted)): 1820 nM
growth at 10 µM (UACC-62): -60%
growth at 1 µM (SR): 9%
growth at 0.1 µM (OVCAR-5 [7]): 108%
TGI (MDA-MB-468; read-out: TGI): 1530 nM
GI50 (MDA-MB-468; read-out: pGI50 (converted)): 302 nM
CC50 (MDA-MB-468; [11]): 7940 nM
TGI (MDA-MB-468; read-out: pTGI (converted)): 1550 nM
growth at 10 µM (SF-268): 7%
growth at 0.1 µM (RPMI-8226): 76%
growth at 1 µM (ACHN [8]): 9%
TGI (HCC 2998; read-out: TGI): 2820 nM
GI50 (HCC 2998; read-out: pGI50 (converted)): 603 nM
CC50 (HCC 2998; [11]): 15800 nM
TGI (HCC 2998; read-out: pTGI (converted)): 2820 nM
growth at 100 µM (OVCAR-5 [9]): 7%
growth at 0.01 µM (OVCAR-3): 106%
TGI (HOP-62; read-out: TGI): 7790 nM
GI50 (HOP-62; read-out: pGI50 (converted)): 575 nM
CC50 (HOP-62; [11]): > 100000 nM
TGI (HOP-62; read-out: pTGI (converted)): 7760 nM
growth at 10 µM (COLO 205 [10]): -52%
growth at 1 µM (NCI-H460): 5%
TGI (NCI-H23; read-out: TGI): 6850 nM
GI50 (NCI-H23; read-out: pGI50 (converted)): 398 nM
CC50 (NCI-H23; [11]): > 100000 nM
TGI (NCI-H23; read-out: pTGI (converted)): 6920 nM
growth at 0.01 µM (OVCAR-4): 100%
